In PubChem BioAssay AID248 (DTP/NCI, 2004):
“And” between values parts separate entries of the source, which are not always exact repeats. Equal entries are not always repeated. Toxic doses and inconclusive results are not listed. Rule as the data show it: active = T/C of 150% or more; inactive = T/C below 125%.

Test system: L1210 leukemia ip in BDF1 mice, survival T/C
Assay: NCI In Vivo Anticancer Drug Screen. Data for tumor model L1210 Leukemia (intraperitoneal) in B6D2F1 (BDF1) mice
Conditions: endpoint: mean survival time, higher = longer survival
Method in brief: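 Read-out is survival time, reported as the treated-group measurement over the vehicle-control measurement.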

[1] = dose: 100.0 mg/kg/injection, schedule: Q04DX003 (ip), vehicle: saline with Tween-80
[2] = dose: 200.0 mg/kg/injection, schedule: Q04DX003 (ip), vehicle: saline with Tween-80
[3] = dose: 400.0 mg/kg/injection, schedule: Q04DX003 (ip), vehicle: saline with Tween-80
[4] = dose: 100.0 mg/kg/injection, schedule: Q01DX009 (ip), vehicle: saline
[5] = dose: 100.0 mg/kg/injection, schedule: Q04DX003 (ip), vehicle: saline
[6] = dose: 200.0 mg/kg/injection, schedule: Q01DX009 (ip), vehicle: saline
[7] = dose: 200.0 mg/kg/injection, schedule: Q04DX003 (ip), vehicle: saline
[8] = dose: 400.0 mg/kg/injection, schedule: Q01DX009 (ip), vehicle: saline
[9] = dose: 400.0 mg/kg/injection, schedule: Q04DX003 (ip), vehicle: saline
[10] = dose: 50.0 mg/kg/injection, schedule: Q01DX009 (ip), vehicle: saline with Tween-80
[11] = dose: 100.0 mg/kg/injection, schedule: Q01DX009 (ip), vehicle: saline with Tween-80
[12] = dose: 200.0 mg/kg/injection, schedule: Q01DX009 (ip), vehicle: saline with Tween-80
[13] = dose: 400.0 mg/kg/injection, schedule: Q01DX009 (ip), vehicle: saline with Tween-80
[14] = dose: 100.0 mg/kg/injection, schedule: Q01DX001 (ip), vehicle: saline with Tween-80
[15] = dose: 200.0 mg/kg/injection, schedule: Q01DX001 (ip), vehicle: saline with Tween-80
[16] = dose: 400.0 mg/kg/injection, schedule: Q01DX001 (ip), vehicle: saline with Tween-80

Measured: T/C

CC(=O)OCC1OC(N2C(=O)/C(=C(/C)c3ccccn3)SC2=S)C(OC(C)=O)C(OC(C)=O)C1OC(C)=O (configuration not stated)
inactive: dose: 25.0 mg/kg/injection, schedule: Q01DX005 (ip), vehicle: other 92 % of control | dose: 50.0 mg/kg/injection, schedule: Q01DX005 (ip), vehicle: other 97 % of control | dose: 100.0 mg/kg/injection, schedule: Q01DX005 (ip), vehicle: other 94 % of control | dose: 200.0 mg/kg/injection, schedule: Q01DX005 (ip), vehicle: other 96 % of control | dose: 400.0 mg/kg/injection, schedule: Q01DX005 (ip), vehicle: other 96 % of control

CN(C)c1ccc(/C=C/C(=O)c2ccc([N+](=O)[O-])cc2)c(Cl)c1
inactive: dose: 100.0 mg/kg/injection, schedule: Q04DX003 (ip), vehicle: Klucel (hydroxypropylcellulose) (HPC) 92 % of control | dose: 200.0 mg/kg/injection, schedule: Q04DX003 (ip), vehicle: Klucel (hydroxypropylcellulose) (HPC) 97 % of control | dose: 400.0 mg/kg/injection, schedule: Q04DX003 (ip), vehicle: Klucel (hydroxypropylcellulose) (HPC) 97 % of control

CCCC(=O)NNC(=O)CCC
inactive: dose: 100.0 mg/kg/injection, schedule: Q04DX003 (ip), vehicle: gum acacia 106 % of control | dose: 200.0 mg/kg/injection, schedule: Q04DX003 (ip), vehicle: gum acacia 107 % of control | dose: 400.0 mg/kg/injection, schedule: Q04DX003 (ip), vehicle: gum acacia 120 % of control

COC(=O)NC1CC2C=CC1C1C=CC21 (configuration not stated)
inactive: [1] 92 % of control | [2] 91 % of control | [3] 100 % of control

OC1C=CC2C3C=CC(C3)C12 (configuration not stated)
inactive: dose: 50.0 mg/kg/injection, schedule: Q01DX009 (ip), vehicle: saline 102 % of control | dose: 50.0 mg/kg/injection, schedule: Q04DX003 (ip), vehicle: saline 102 % of control | [4] 104 % of control | [5] 103 % of control | [6] 95 % of control | [7] 94 % of control | [8] 95 % of control | [9] 91 % of control

O=C1c2ccccc2-c2cc(Br)c(NC(=O)C(F)(F)F)cc21
inactive: [1] 108 % of control | [2] 105 % of control | [3] 100 % of control

OCC12CCCCC1CC1(CC2)OCCO1 (configuration not stated)
inactive: [10] 102 % of control | [11] 103 % of control | [4] 100 % of control | [1] 86 % of control | [5] 111 % of control | [12] 96 % of control | [6] 102 % of control | [2] 99 % of control | [7] 106 % of control | [8] 107 % of control | [9] 106 % of control

Cc1c[n+](CC(=O)c2ccccc2)cn1CC(=O)c1ccccc1
inactive: dose: 25.0 mg/kg/injection, schedule: Q01DX009 (ip), vehicle: Klucel (hydroxypropylcellulose) (HPC) 102 % of control and 105 % of control | dose: 25.0 mg/kg/injection, schedule: Q04DX002 (ip), vehicle: Klucel (hydroxypropylcellulose) (HPC) 95 % of control and 102 % of control | dose: 50.0 mg/kg/injection, schedule: Q01DX009 (ip), vehicle: Klucel (hydroxypropylcellulose) (HPC) 100 % of control and 116 % of control | dose: 50.0 mg/kg/injection, schedule: Q04DX002 (ip), vehicle: Klucel (hydroxypropylcellulose) (HPC) 95 % of control and 100 % of control | dose: 100.0 mg/kg/injection, schedule: Q01DX009 (ip), vehicle: Klucel (hydroxypropylcellulose) (HPC) 102 % of control and 108 % of control

Cc1cccc(NC(=O)NCCOC(=O)OCCNC(=O)Nc2cccc(C)c2C)c1C
inactive: [11] 97 % of control | [1] 91 % of control | [12] 98 % of control | [2] 91 % of control | [13] 97 % of control | [3] 106 % of control

CCOC(=O)CN(CC(=O)OCC)CC(O)C(Cl)(Cl)Cl (configuration not stated)
inactive: [11] 106 % of control | [1] 96 % of control | [12] 93 % of control | [2] 101 % of control | [13] 104 % of control | [3] 98 % of control

CC1(Br)C(=O)C(O)=C(Br)C1=O (configuration not stated)
inactive: dose: 75.0 mg/kg/injection, schedule: Q01DX001 (ip), vehicle: saline 104 % of control | dose: 150.0 mg/kg/injection, schedule: Q01DX001 (ip), vehicle: saline 106 % of control

O=C(CBr)c1cc(-c2cccc(I)c2)nc2c(Cl)cc(Cl)cc12
inactive: [1] 101 % of control | [2] 93 % of control | [3] 93 % of control

Fc1c(F)c(F)c(Oc2c(F)c(F)c(Br)c(F)c2F)c(F)c1F
inactive: [14] 88 % of control | [15] 88 % of control | [16] 88 % of control

COc1cc([N+](=O)[O-])ccc1NC(=O)N(C1CCCCC1)C1CCCCC1
inactive: [10] 100 % of control and 106 % of control | dose: 50.0 mg/kg/injection, schedule: Q04DX002 (ip), vehicle: saline with Tween-80 90 % of control | [14] 95 % of control | [11] 96 % of control and 108 % of control | dose: 100.0 mg/kg/injection, schedule: Q04DX002 (ip), vehicle: saline with Tween-80 93 % of control and 99 % of control and 105 % of control | [1] 108 % of control | [15] 91 % of control | [12] 100 % of control and 104 % of control | dose: 200.0 mg/kg/injection, schedule: Q04DX002 (ip), vehicle: saline with Tween-80 89 % of control | [2] 106 % of control | [16] 91 % of control | [13] 108 % of control and 111 % of control | dose: 400.0 mg/kg/injection, schedule: Q04DX002 (ip), vehicle: saline with Tween-80 93 % of control and 97 % of control and 99 % of control | [3] 104 % of control

COc1ccc(C(=O)/C(C)=N/O)cc1
inactive: dose: 100.0 mg/kg/injection, schedule: Q01DX001 (ip), vehicle: saline 103 % of control | dose: 200.0 mg/kg/injection, schedule: Q01DX001 (ip), vehicle: saline 103 % of control | dose: 400.0 mg/kg/injection, schedule: Q01DX001 (ip), vehicle: saline 101 % of control

Nn1nnc(-c2ccccc2)c1-c1ccccc1
inactive: dose: 100.0 mg/kg/injection, schedule: Q01DX001 (ip), vehicle: carboxymethylcellulose (CMC) 100 % of control | dose: 200.0 mg/kg/injection, schedule: Q01DX001 (ip), vehicle: carboxymethylcellulose (CMC) 100 % of control

c1ccc(-c2nncnn2)cc1
inactive: dose: 25.0 mg/kg/injection, schedule: Q04DX003 (ip), vehicle: saline with Tween-80 97 % of control | dose: 50.0 mg/kg/injection, schedule: Q04DX003 (ip), vehicle: saline with Tween-80 92 % of control | [1] 101 % of control

CSCCOC(=O)C1C2CCC(O2)C1C(=O)O (configuration not stated)
inactive: dose: 12.5 mg/kg/injection, schedule: Q04DX003 (ip), vehicle: Klucel (hydroxypropylcellulose) (HPC) 104 % of control

CC(=O)Nc1ccc(OCCOc2cccc(C)c2)cc1
inactive: dose: 100.0 mg/kg/injection, schedule: Q01DX001 (ip), vehicle: Klucel (hydroxypropylcellulose) (HPC) 103 % of control | dose: 200.0 mg/kg/injection, schedule: Q01DX001 (ip), vehicle: Klucel (hydroxypropylcellulose) (HPC) 100 % of control | dose: 400.0 mg/kg/injection, schedule: Q01DX001 (ip), vehicle: Klucel (hydroxypropylcellulose) (HPC) 105 % of control
